Experiment [1] concerns the target T1, Prostaglandin G/H synthase 2 (Ovis aries) (UniProt P79208).
T1 sequence (whole entry): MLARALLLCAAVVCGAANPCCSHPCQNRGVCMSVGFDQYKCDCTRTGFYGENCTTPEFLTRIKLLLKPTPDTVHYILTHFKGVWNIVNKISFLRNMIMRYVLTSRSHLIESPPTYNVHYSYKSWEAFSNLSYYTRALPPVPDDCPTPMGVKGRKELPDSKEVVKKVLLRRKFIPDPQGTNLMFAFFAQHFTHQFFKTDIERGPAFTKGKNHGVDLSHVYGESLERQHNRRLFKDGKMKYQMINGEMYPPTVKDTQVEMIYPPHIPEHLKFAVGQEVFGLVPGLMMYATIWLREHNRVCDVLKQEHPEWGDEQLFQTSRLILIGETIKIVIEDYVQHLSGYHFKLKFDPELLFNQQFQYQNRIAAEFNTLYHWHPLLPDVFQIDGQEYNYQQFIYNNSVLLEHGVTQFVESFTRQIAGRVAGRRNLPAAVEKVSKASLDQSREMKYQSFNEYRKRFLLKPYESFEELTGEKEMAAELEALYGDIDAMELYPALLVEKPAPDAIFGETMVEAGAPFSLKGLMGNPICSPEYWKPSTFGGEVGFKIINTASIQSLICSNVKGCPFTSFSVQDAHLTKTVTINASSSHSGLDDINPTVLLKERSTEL
Nature of the experiment: Inhibition of ram seminal vesicle COX2 at 50 uM assessed as PGE2 level by EIA. It is filed as tissue-based.

Experiment [2] concerns the target T2, Prostaglandin G/H synthase 1 (Ovis aries) (UniProt P05979).
T2 sequence (whole entry): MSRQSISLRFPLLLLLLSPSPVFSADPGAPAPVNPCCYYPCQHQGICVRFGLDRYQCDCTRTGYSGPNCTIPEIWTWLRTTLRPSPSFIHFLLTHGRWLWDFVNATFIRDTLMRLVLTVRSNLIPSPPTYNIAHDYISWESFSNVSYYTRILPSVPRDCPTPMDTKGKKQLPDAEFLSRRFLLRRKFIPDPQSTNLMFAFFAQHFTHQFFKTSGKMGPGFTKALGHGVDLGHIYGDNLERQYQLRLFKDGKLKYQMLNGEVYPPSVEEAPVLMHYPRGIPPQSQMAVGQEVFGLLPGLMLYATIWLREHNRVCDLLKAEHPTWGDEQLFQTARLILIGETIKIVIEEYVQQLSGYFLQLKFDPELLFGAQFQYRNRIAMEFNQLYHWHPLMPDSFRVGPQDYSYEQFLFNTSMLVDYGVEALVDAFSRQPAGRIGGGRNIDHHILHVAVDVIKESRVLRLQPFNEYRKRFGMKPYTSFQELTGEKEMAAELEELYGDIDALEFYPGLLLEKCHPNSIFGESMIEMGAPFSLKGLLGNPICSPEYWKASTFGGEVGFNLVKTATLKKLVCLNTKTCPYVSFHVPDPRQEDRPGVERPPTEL
Description: Inhibition of ram seminal vesicle COX1 at 50 uM assessed as PGE2 concentration.

Experiment [3] addresses T3, Prostaglandin G/H synthase 2 (Ovis aries, UniProt P79208).
T3 sequence (P79208 whole entry): T1 sequence (whole entry)
Nature of the experiment: Inhibition of sheep placental cotyledens COX2 assessed as PGE2 level by EIA.

Experiment [4] deals with T4, Polyunsaturated fatty acid 5-lipoxygenase (Homo sapiens) (UniProt P09917).
T4 sequence (whole entry): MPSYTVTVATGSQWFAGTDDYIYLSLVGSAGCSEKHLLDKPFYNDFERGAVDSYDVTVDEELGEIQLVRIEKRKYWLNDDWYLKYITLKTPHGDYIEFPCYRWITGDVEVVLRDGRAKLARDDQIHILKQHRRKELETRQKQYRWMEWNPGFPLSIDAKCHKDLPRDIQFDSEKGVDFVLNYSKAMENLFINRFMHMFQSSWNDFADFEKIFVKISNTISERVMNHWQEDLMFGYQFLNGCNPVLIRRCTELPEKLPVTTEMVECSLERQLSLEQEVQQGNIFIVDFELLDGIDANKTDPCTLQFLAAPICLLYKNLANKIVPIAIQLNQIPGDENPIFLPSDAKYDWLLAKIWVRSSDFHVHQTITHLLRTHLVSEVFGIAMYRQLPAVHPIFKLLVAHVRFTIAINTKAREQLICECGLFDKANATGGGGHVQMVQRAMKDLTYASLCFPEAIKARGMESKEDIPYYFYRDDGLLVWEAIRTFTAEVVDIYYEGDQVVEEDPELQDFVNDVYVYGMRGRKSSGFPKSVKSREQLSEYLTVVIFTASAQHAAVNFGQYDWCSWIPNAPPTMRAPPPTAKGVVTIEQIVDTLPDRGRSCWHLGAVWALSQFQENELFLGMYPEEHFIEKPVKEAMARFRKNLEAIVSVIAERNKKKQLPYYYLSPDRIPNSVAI
Nature of the experiment: Inhibition of 5-LOX-mediated LTB4 production from stimulated human neutrophile granulocytes at 50 uM after 10 mins by EIA.

The target of experiment [5] is T5, Polyunsaturated fatty acid 5-lipoxygenase (Homo sapiens, UniProt P09917).
T5 sequence (P09917 whole entry): T4 sequence (whole entry)
Nature of the experiment: Inhibition of 5-LOX-mediated LTB4 production in stimulated human neutrophile granulocytes after 10 mins by EIA.

SMILES strings stand for the structures. Active and inactive are the calls of the source. The calls are words filed in the database; no cut-off is given here.

For orientation: inhibition means the percentage by which the read-out fell short of the control. Consider `COc1cc2c(c(O)c1O)-c1c(cc(OC)c(O)c1O)C[C@](C)(O)[C@@H](C)C2`, for which the inhibition result in experiment [1] and in experiment [2] was “inactive” in each case.

By IC50 is commonly meant the concentration that gives 50% inhibition. Turning to `CC(O)C1(C)Cc2cc(O)c(O)c(O)c2-c2c(cc(O)c(O)c2O)C1` (stereo unspecified), the IC50 in experiment [3] turned out to be 32.1 µM. Moreover, in experiment [4], the inhibition was 37.3%. The inhibition entry in experiment [2] is “inactive”.

For `C/C=C(/C)C(=O)Oc1c(OC)c(OC)cc2c1-c1c(cc(OC)c(OC)c1OC)C[C@](C)(O)[C@@H](C)C2`, the inhibition result in experiment [1], in experiment [4] and in experiment [2] was “inactive” throughout.

`COc1cc2c(c(O)c1O)-c1c(cc(OC)c(O)c1O)CC(C)(C(C)O)C2` (stereo unspecified) returned an IC50 in experiment [5] of 4.2 µM. Also, in experiment [2], the inhibition entry was “inactive”.

Regarding `C/C=C(\C)C(=O)Oc1c(OC)c(OC)cc2c1-c1c(cc(OC)c(OC)c1OC)C[C@](C)(O)[C@@H](C)C2`, the inhibition entry in experiment [1], in experiment [4] and in experiment [2] was “inactive” throughout.

With `COc1cc2c(c(OC)c1OC)-c1c(cc(OC)c(OC)c1OC)C[C@](C)(O)[C@@H](C)C2`, the inhibition entry in experiment [1], in experiment [4] and in experiment [2] was “inactive” each time.

In the case of `COc1cc2c(c(OC)c1OC)-c1c(cc3c(c1OC)OCO3)C[C@H](C)[C@](C)(O)C2`, the inhibition result in experiment [1], in experiment [4] and in experiment [2] was “inactive” in each case.

In experiment [5], `COc1cc2c(c(OC)c1OC)-c1c(cc(OC)c(OC)c1OC)CC(C)(C(C)I)C2` (stereo unspecified) returned an IC50 of 4.5 µM. Besides, the inhibition result in experiment [2] was “inactive”.

(Values after ChEMBL document CHEMBL1156986, “Derivatives of schisandrin with increased inhibitory potential on prostaglandin E(2) and leukotriene B(4) formation in vitro” (Bioorg Med Chem, 2010).)
